Patent publication US11304892B2, “Alteromonas macleodii Dow02-2 and its metabolites for improving skin moisturization” (TCI Co., Ltd., priority 2018, dated 2022)

What was measured:
Assay type in all cases: cell-based
Conditions in all cases: HPEK-50 cells, 10 μg/ml, 6 hours, 37° C.
KRT14 gene = test: qPCR relative expression of KRT14 gene in human epidermal keratinocytes HPEK-50
Protocol: (§1) The human epidermal keratinocytes HPEK-50 were cultured with a keratinocyte-SFM at 37° C. for 24 hours. Thereafter, the cells were divided into eight groups and respectively cultured with the following media at 37° C. for 6 hours: • 1. Control group: keratinocyte-SFM; • 2. “Supernatant” group: keratinocyte-SFM that was additionally added with 62.5 μg/ml of the supernatant obtained from [Preparation Example] B; • 3. “Fraction 1” group: keratinocyte-SFM that was additionally added with 62.5 μg/ml of the Fraction 1 obtained from [Preparation Example] C-1; • 4. “Fraction 2” group: keratinocyte-SFM that was additionally added with 62.5 μg/ml of the Fraction 2 obtained from [Preparation Example] C-1; • 5. […]
(§2) To investigate the effects of metabolites of Alteromonas macleodii Dow02-2 and 2-hydroxy-3-methylbutyric acid on moisturizing skin, inventors of the present invention collected the cells in each group of Example 1-1. […] Thereafter, the cDNA was subjected to a quantitative polymerase chain reaction (qPCR) by using a KAPA CYBR FAST qPCR kit (purchased from KAPA Biosystems) and ABI StepOne Plus™ System to determine the expression levels of moisturizing-related genes such as TGM1 gene, KRT1 gene, KRT10 gene, KRT14 gene, FLG gene, GBA gene and HAS3 gene in the cells of each group. […]

FLG gene = test: qPCR relative expression of FLG gene in human epidermal keratinocytes HPEK-50
Protocol: as §1, §2

KRT1 gene = test: qPCR relative expression of KRT1 gene in human epidermal keratinocytes HPEK-50
Protocol: as §1, §2

TGM1 gene = test: qPCR relative expression of TGM1 gene in human epidermal keratinocytes HPEK-50
Protocol: as §1, §2

GBA gene = test: qPCR relative expression of GBA gene in human epidermal keratinocytes HPEK-50
Protocol: as §1, §2

KRT10 gene = test: qPCR relative expression of KRT10 gene in human epidermal keratinocytes HPEK-50
Protocol: as §1, §2

HAS3 gene = test: qPCR relative expression of HAS3 gene in human epidermal keratinocytes HPEK-50
Protocol: as §1, §2

SMILES: CC(C)C(O)C(=O)O (stereo not shown) [2-hydroxy-3-methylbutyric acid]
- increase of expression level of KRT14 gene in comparison with the control group (KRT14 gene): 43%
- increase of expression level of FLG gene in comparison with the control group (FLG gene): 41%
- increase of expression level of KRT1 gene in comparison with the control group (KRT1 gene): 29%
- increase of expression level of TGM1 gene in comparison with the control group (TGM1 gene): 26%
- increase of expression level of GBA gene in comparison with the control group (GBA gene): 49%
- increase of expression level of KRT10 gene in comparison with the control group (KRT10 gene): 158%
- increase of expression level of HAS3 gene in comparison with the control group (HAS3 gene): 97%
